Measured values reported in patent US20260028352A1, “MACROCYCLIC IMIDAZO [1,2-B] PYRIDAZINE DERIVATIVE, PREPARATION METHOD THEREFOR, AND USE THEREOF” (SUZHOU LANGRUI BIOPHARMACEUTICAL CO., LTD., priority 2022, published 2026).

Tests used:
TRKA^WT kinase = TRKA^WT kinase (Homo sapiens (Human), UniProt P04629); experiment: Inhibitory activity against TRKA WT kinase (Caliper mobility shift); type: biochemical; conditions: in vitro kinase assay
Procedure: Kinase Assay Process: 1× Kinase buffer was prepared. […] The compounds were serially diluted into 10 concentrations ([…], 0.15, and 0.05 nM) using a Precision 3-fold dilution method. By using the Echo550 liquid handler, 250 nL of the 100-fold final concentration compound was transferred to an OptiPlate-384F plate. a 2.5× final concentration kinase solution was prepared using 1× Kinase buffer. 10 μL of the 2.5× final concentration kinase solution was added to the compound wells and the positive control wells, and 10 μL of 1× Kinase buffer was added to the negative control wells. The plate was centrifuged at 1000 rpm for 30 seconds, vortexed for mixing, and then incubated at room temperature for 10 minutes. A mixture of 5/3× final concentration of ATP and Kinase Substrate 22 was prepared using 1× Kinase buffer. 15 μL of the mixture of the 5/3× final concentration ATP and the substrate was added to initiate the reaction, the 384-well plate was centrifuged at 1000 rpm for 30 seconds, vortexed for mixing, and incubated at room temperature for the required time. 30 μL of the termination solution was added to stop the kinase reaction, the plate was centrifuged at 1000 rpm for 30 seconds, and vortexed for mixing. The conversion rate was measured using the Caliper EZ Reader.
Data Analysis: the inhibition rate was calculated as follows:
% Inhibition=(Conversion %_max−conversion %_sample)÷(Conversion %_max−conversion %_min)×100
Conversion %_sample is the conversion rate reading for the sample; Conversion %_min is the average value of the negative control wells, representing the conversion rate for wells without enzyme activity: Conversion %_max is the average value of the positive control wells, representing the conversion rate for wells without compound inhibition. A dose-response curve was fitted using the log concentration of the compound as the X-axis and the percentage inhibition as the Y-axis. The log(inhibitor) vs. response-variable slope of the GraphPad Prism 5 software was used to fit the dose-response curve, and the IC50 value for each compound was obtained. The calculation formula is:
Y=Bottom+(Top−Bottom)/(1+10^((Log IC50−X)*HillSlope)).
wherein X represents the concentration of the compound to be tested; Y represents the inhibition rate at the concentration X: Top refers to the maximum response: Bottom refers to the baseline response; HillSlope refers to the slope of the curve (i.e., the gradient).

[1] = tested on: Ba/F3-TPM3-NTRK1-G667C cells; experiment: Growth inhibition of Ba/F3-TPM3-NTRK1-G667C cells (Cell Titer-Glo); type: cell-based; conditions: 72 hours, CTG; read-out: inhibitory activity IC50 Ba/F3-TPM3-NTRK1-G667C
Procedure: Then the solutions were subjected to a gradient dilution with DMSO: a clean, sterile V-bottom 96-well microplate was placed in the biological safety cabinet. First, 4 μL of DMSO was added to well B2 and 10 μL of DMSO was added to wells B3-B11 respectively; Next, 6 μL of the 10 mM solution was added to well B2. The microplate was pipetted up and down 10 times for mixing. […] Mixing was performed by pipetting up and down 10 times. The solution was diluted in order until well B10. only DMSO was added to well B11 (no compound).
6× Compound Solution Preparation (6-fold dilution, × represents dilution factor): (Initial final concentration: 10 μM), a clean, sterile V-bottom 96-well microplate was placed in the biological safety cabinet. 99 μL of cell culture medium was added to each well from B2 to G11. By using a 12-channel pipettor, 1 μL of the compound solution prepared in the previous step was added into the corresponding wells. The solutions were pipetted up and down 10 times to mix the solutions. The highest concentration of compound in this step was 60 μM.
Treatment of Cells: the above-prepared cell culture plate was taken out of the incubator. 20 μL of compound solution from each well was added to the corresponding cell culture wells. The lowest pipetting speed was used and touching the bottom of the plate was avoided. The culture plate was gently shaked to mix the compound solution, then the plate was returned to the incubator for further culture for 72 hours.
The highest treatment concentration of the compound was 10 μM. After 72 hours of treatment, the Cell Titer-Glo (CTG) assay was performed. First, the cell culture plate was removed from the CO2 incubator and allowed to stand at room temperature for 30 minutes to ensure uniform temperature of the plate. The pre-prepared Cell Titer-Glo reagent (following the manufacturer's instructions) was taken and allowed to stand at room temperature to thaw. 60 μL of Cell Titer-Glo reagent was added to each well containing cells. The cells were incubated on a horizontal shaker in a dark place at 225 rpm for 1 hour at room temperature. Then, a Tecan Spark microplate reader was used to read the plate using chemiluminescence according to the manufacturer's instructions.

Chain of TRKA^WT kinase (P04629 33-796): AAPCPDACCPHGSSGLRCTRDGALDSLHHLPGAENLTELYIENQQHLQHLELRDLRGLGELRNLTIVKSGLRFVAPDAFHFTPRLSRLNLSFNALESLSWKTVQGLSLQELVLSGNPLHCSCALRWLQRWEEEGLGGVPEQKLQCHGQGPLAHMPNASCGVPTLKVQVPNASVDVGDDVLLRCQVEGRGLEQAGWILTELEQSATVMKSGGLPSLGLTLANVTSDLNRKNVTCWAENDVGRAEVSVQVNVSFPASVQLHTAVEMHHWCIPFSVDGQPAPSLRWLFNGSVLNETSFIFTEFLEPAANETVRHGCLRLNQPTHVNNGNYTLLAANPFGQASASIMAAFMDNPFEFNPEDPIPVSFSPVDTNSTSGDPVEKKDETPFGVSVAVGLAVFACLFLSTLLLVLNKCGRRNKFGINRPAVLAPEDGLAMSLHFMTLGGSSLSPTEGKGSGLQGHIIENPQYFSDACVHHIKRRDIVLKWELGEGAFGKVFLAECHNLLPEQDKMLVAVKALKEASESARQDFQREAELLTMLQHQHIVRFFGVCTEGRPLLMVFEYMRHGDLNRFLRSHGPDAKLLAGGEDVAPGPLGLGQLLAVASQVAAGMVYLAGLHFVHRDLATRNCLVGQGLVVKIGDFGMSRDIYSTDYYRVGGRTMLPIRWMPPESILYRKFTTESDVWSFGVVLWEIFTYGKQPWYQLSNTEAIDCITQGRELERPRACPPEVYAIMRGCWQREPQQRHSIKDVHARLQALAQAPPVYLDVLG

| IC50 (TRKA^WT kinase) [nM] | IC50 [1] [nM] | Molecule |
| --- | --- | --- |
| 5.1 |  | (S)-(E)-5^5-fluoro-6-methyl-3-oxa-7-aza-1(3,6)-imidazo[1,2-b]pyridazina-2(2,4), 5(2,3)-dipyridinacycloheptaphane [Example I-25] |
| 5.2 |  | C[C@@H]1Nc2ccc3ncc(n3n2)-c2cc(ccn2)COc2c(F)cc(F)cc21 [Example I-17, (S)-(E)-5′,5′-difluoro-6-methyl-4-oxa-7-aza-1(3,6)-imidazo[1,2-b]pyridazine-2(2,4)-pyridina-5(1,2)-benzenacycloheptaphane] |
| 5.9 |  | (R)-(E)-4-methyl-6-oxa-3-aza-2(3,6)-imidazo[1,2-b]pyridazina-1(4,6)-pyrimidina-5(1,2)-benzenacyclooctaphane [Example I-33] |
| 5.7 |  | C[C@@H]1Nc2ccc3ncc(n3n2)-c2cc(ccn2)OCc2ccc(F)cc21 [Example I-31, (S)-(E)-5^4-fluoro-6-methyl-3-oxa-7-aza-1(3,6)-imidazo[1,2-b]pyridazina-2(2,4)-pyridina-5(1,2)-benzenacycloheptaphane] |
| 5.7 |  | C[C@@H]1Nc2ccc3ncc(n3n2)-c2cc(ccn2)COc2ccccc21 [Example I-19, (S)-(E)-6-methyl-4-oxa-7-aza-1(3,6)-imidazo[1,2-b]pyridazine-2(2,4)-pyridina-5(1,2)-benzenacycloheptaphane] |
| 3.7 |  | C[C@@H]1Nc2ccc3ncc(n3n2)-c2cc(ncn2)COc2ccccc21 [Example I-27, (6S,E)-6-methyl-4-oxa-7-aza-1(3,6)-imidazo[1,2-b]pyridazina-2(4,6)-pyrimidina-5(1,2)-benzenacycloheptaphane] |
| 4.8 |  | C[C@@H]1Nc2ccc3ncc(n3n2)-c2cncc(c2)COc2ccc(F)cc21 [Example I-23, (S)-(E)-5^4-fluoro-6-methyl-4-oxa-7-aza-1(3,6)-imidazo[1,2-b]pyridazina-2(3,5)-pyridina-5(1,2)-benzenacycloheptaphane] |
| 4.9 |  | C[C@@H]1Nc2ccc3ncc(n3n2)-c2cc(ccn2)CCOc2ccccc21 [Example I-29, (4S,E)-4-methyl-6-oxa-3-aza-2(3,6)-imidazo [1,2-b]pyridazina-1(2,4)-pyridina-5(1,2)-benzenacyclooctaphane] |
| 6.1 |  | C[C@@H]1Nc2ccc3ncc(n3n2)-c2cc(ccn2)COc2ncccc21 [Example I-21, (6S,E)-6-methyl-4-oxa-7-aza-1(3,6)-imidazo[1,2-b]pyridazina-2(2,4), 5(2,3)-dipyridinacycloheptaphane] |
| 4.8 |  | C[C@@H]1Nc2ccc3ncc(n3n2)-c2cc(ccn2)COc2ccc(F)cc21 [Example I-15, (S)-(E)-5′-fluoro-6-methyl-4-oxa-7-aza-1(3,6)-imidazo[1,2-b]pyridazina-2(2,4)-pyridina-5(1,2)-benzenacycloheptaphane] |
|  | < 100 | C[C@H]1Nc2ccc3ncc(n3n2)-c2cc(ccn2)CCOc2ncc(F)cc21 [Example I-75, (4R,E)-5^5-fluoro-4-methyl-6-oxa-3-aza-2(3,6)-imidazo[1,2-b]pyridazina-1(2,4), 5(3,2)-dipyridinacyclooctaphane] |
|  | < 100 | Fc1ccc2c(c1)[C@H]1CCCN1c1ccc3ncc(n3n1)-c1cc(ncn1)CO2 [Example I-57, (14bR,E)-13-fluoro-14b,15,16,17-tetrahydro-9H-1,19-etheno-4,8-(metheno)benzo[n]imidazo[5,1-h]pyrrolo[1,2-l][1]oxa[4,6,9,10,12]pentaazacyclopentadecine] |
|  | < 100 | C[C@H]1Nc2ccc3ncc(n3n2)-c2nccc(n2)COc2ncc(F)cc21 [Example I-79, (6R,E)-5^5-fluoro-6-methyl-4-oxa-7-aza-1(3,6)-imidazo[1,2-b]pyridazina-2(2,4)-pyrimidina-5(2,3)-pyridinacycloheptaphane] |
|  | < 100 | C[C@H]1Nc2ccc3ncc(n3n2)-c2cc(ncn2)COc2ccc(F)cc21 [Example I-78, (6R,E)-5^4-fluoro-6-methyl-4-oxa-7-aza-1(3,6)-imidazo[1,2-b]pyridazina-2(4,6)-pyrimidina-5(1,2)-benzenacycloheptaphane] |
|  | < 100 | C[C@H]1Nc2ccc3ncc(n3n2)-c2cc(ccn2)N2CCC[C@@H](C2)Oc2ccc(F)cc21 [Example I-44, (3^3S,6R,E)-5^4-fluoro-6-methyl-4-oxa-7-aza-1(3,6)-imidazo[1,2-b]pyridazina-2(2,4)-pyridina-3(1,3)-piperidina-5(1,2)-benzenacycloheptaphane] |
|  | < 100 | C[C@@H]1Cc2ccnc(c2)-c2cnc3ccc(nn23)N[C@H](C)c2cc(F)ccc2O1 [Example I-34, (4R,7R,E)-5^5-fluoro-4,7-dimethyl-6-oxa-3-aza-2(3,6)-imidazo[1,2-b]pyridazina-1(2,4)-pyridina-5(1,2)-benzenacyclooctaphane] |
|  | < 100 | Fc1cnc2c(c1)[C@H]1CCCN1c1ccc3ncc(n3n1)-c1cc(cnn1)CO2 [Example I-67, (14bR,E)-13-fluoro-14b,15,16,17-tetrahydro-9H-1,19-etheno-4,8-(metheno)imidazo[5,1-h]pyrido[3,2-n]pyrrolo[1,2-l][1]oxa[5,6,9,10,12]pentaazacyclopentadecine] |
|  | < 100 | CC1(C)Nc2ccc3ncc(n3n2)-c2cc(ccn2)COc2ccc(F)cc21 [Example I-48, (E)-5^4-fluoro-6,6-dimethyl-4-oxa-7-aza-1(3,6)-imidazo[1,2-b]pyridazina-2(2,4)-pyridina-5(1,2)-benzenacycloheptaphane] |
|  | < 100 | Fc1ccc2c(c1)[C@H]1CCCN1c1ccc3ncc(n3n1)-c1cc(ccn1)[C@H]1CCC[C@H]1O2 [Example I-45, (8aR,11aR,16bR,E)-15-fluoro-8a,10,11,11a,16b,17,18,19-octahydro-9H-1,21-etheno-4,8-(metheno)benzo[b]cyclopenta[o]imidazo[1,5-h]pyrrolo[2,1-d][1]oxa[5,7,8,11]tetraazacyclohexadecine] |
|  | < 100 | Fc1cnc2c(c1)[C@H]1CCCN1c1ccc3ncc(n3n1)-c1nccc(n1)CCO2 [Example I-87, (3^2R,E)-4^5-fluoro-5-oxa-2(3,6)-imidazo[1,2-b]pyridazina-1(2,4)-pyrimidina-4(3,2)-pyridina-3(1,2)-pyrrolidinacycloheptaphane] |
|  | < 100 | C[C@@H]1Cc2ccnc(c2)-c2cnc3ccc(nn23)N2CCC[C@@H]2c2cc(F)cnc2O1 [Example I-38, (3^2R,6R,E)-4^5-fluoro-6-methyl-5-oxa-2(3,6)-imidazo[1,2-b]pyridazina-1(2,4),4(3,2)-dipyridina-3(1,2)-pyrrolidinacycloheptaphane] |
|  | < 100 | Fc1ccc2c(c1)[C@H]1CCCN1c1ccc3ncc(n3n1)-c1nccc(n1)CO2 [Example I-61, (14bR,E)-13-fluoro-14b,15,16,17-tetrahydro-9H-4,8-(azeno)-1,19-etheno benzo[b]imidazo[1,5-h]pyrrolo[2,1-d][1]oxa[5,7,8,11]tetraazacyclopentadecine] |
|  | < 100 | Fc1ccc2c(c1)[C@H]1CCCN1c1ccc3ncc(n3n1)-c1nccc(n1)CCO2 [Example I-85, (3^2R,E)-4^5-fluoro-5-oxa-2(3,6)-imidazo[1,2-b]pyridazina-1(2,4)-pyrimidina-3(1,2)-pyrrolidina-4(1,2)-benzenacycloheptaphane] |
